Experimental data from patent publication EP0583821A1, “Atriopeptins, guanylate cyclase activators, and phosphodiesterase inhibitors as treatment for glaucoma, hydrocephalus and cerebral edema (cranial fluid volume dysfunction)” (THE GENERAL HOSPITAL CORPORATION, priority 1987, dated 1988).

Legend:
rabbits [1] = experiment: Peripheral blood pressure after intravenous injection; type: in vivo, rabbit; details: intravenous injection of similar doses
rabbits [2] = experiment: CSF production by ventricular-cisternal perfusion after intraventricular drug; type: in vivo, rabbit
Experimental: Drug was given intraventricularly, either by bolus injection or by continuous addition (during a 10-minute period) to the CSF perfusion system. Ventricular-cisternal perfusion of Blue dextran was carried out by a closed system with active pumping both into and out of the catheters at a rate of […]. Output dye concentration was monitored continuously with an in-line photocell; and a separate, contralateral venticular catheter independently measured intracranial pressure. […] Drug was administered in an artificial CSF containing 0.01% rabbit serum albumin (RSA) and 0.25 mM ascorbate. […] In one animal, there was no change in CSF secretion rate, and in no case was there an increase in CSF production. […] During a period of 100 minutes, secretion rate dropped by 70%.

adenylate cyclase = experiment: Adenylate cyclase activity in P1 fractions of whole choroid; type: biochemical, rabbit; details: rANP at high concentrations
Experimental: (§1) The effect of rANP on membrane-bound guanylate cyclase and adenylate cyclase activity in various brain-barrier tissues and tissue fractions from rabbit was compared with its activity in cerebrum and cerebellum. Guanylate cyclase was measured as the rate of cyclic GMP formation by modifications of the technique of Waldman et al., supra, incorporated herein by reference. Briefly, tissues were homogenized (10 mg wet weight per milliliter) in 50 mM tris-HCl, pH 8.0, 1 mM EDTA, 1 mM dithiothreitol, and 250 mM sucrose and centrifuged at 100,000g to obtain a P1 pellet. Reaction tubes contained (in 0.3 ml), 50 mM tris, pH 7.6, 6 mM MnCl₂, 0.5 mM 3-isobutyl, 1-methylxanthine (IBMX), 10 mM theophylline, 3 mM GTP, hormone (in 0.03 ml containing 2.5 mM ascorbic acid and 0.1% bovine serum albumin), and 0.06 ml of P1 fraction (40 to 60 ug of protein). The reaction (4 minutes at 30°C) was started by addition of GTP and terminated by addition of 0.3 ml of 150 mM sodium acetate (pH 4.0) and boiling for 3 minutes. Cyclic GMP formed was subsequently measured by radioimmunoassay as described in example 6, infra. Under these conditions, guanylate cyclase activity was linear with time and tissue concentration. Adenylate cyclase activity in P1 fractions was measured according to the method described by Nathanson, et al., Science; 204:843 (1979); Mol. Pharmacol. 18:199 (1980), see Figure 1C . […] Neurosci. […]

guanylate cyclase = target: T1, guanylate cyclase (Oryctolagus cuniculus, UniProt G1TXB5); experiment: Guanylate cyclase in membrane fractions of cerebellum; type: biochemical, rabbit; parameters: tissues were homogenized (10 mg wet weight per milliliter); from tissue; host or cells: rabbit cerebral microvessels, choroid plexus, kidney, ciliary process, pia-arachnoid, cerebellum; 100,000 g P1 pellet
T1 sequence (G1TXB5 28-1056): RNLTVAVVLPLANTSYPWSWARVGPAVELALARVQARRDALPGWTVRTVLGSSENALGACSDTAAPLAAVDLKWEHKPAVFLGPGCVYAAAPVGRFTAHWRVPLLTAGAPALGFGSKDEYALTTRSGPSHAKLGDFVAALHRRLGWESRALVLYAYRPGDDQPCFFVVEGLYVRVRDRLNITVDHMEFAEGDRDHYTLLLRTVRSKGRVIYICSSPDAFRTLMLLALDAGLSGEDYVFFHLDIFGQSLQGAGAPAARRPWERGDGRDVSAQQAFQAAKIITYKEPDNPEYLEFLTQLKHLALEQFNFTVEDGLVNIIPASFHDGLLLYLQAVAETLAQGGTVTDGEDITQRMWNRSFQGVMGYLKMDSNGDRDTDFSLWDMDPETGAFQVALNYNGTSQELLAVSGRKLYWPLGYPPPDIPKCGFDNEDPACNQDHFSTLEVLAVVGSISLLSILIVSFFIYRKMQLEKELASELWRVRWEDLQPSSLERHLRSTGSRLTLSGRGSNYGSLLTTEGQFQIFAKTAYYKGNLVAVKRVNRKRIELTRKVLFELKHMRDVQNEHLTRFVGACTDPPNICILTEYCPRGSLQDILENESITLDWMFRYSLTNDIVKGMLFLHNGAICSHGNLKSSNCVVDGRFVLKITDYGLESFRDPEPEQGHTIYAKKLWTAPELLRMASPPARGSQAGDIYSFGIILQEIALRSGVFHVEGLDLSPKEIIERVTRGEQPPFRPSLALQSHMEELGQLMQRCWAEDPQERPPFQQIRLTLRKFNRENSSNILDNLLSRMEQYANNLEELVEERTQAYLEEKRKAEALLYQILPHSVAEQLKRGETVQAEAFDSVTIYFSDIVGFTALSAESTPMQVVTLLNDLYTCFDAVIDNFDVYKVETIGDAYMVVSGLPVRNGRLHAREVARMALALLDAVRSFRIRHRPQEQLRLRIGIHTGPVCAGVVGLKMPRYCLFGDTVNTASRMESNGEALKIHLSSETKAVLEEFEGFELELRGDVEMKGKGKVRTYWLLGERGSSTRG
Experimental: as §1

Ser-Leu-Arg-Arg-atriopeptin III (APIII) [rANP 1-28]
peripheral blood pressure (rabbits [1]): no change
mean decrease in rate of CSF production (rabbits [2]; 13 positive responses, SEM, 30 pmol bolus or 3 to 30 pmol/min for 10 minutes intraventricular): 35.3% ± 6.9%
drop of CSF secretion rate (rabbits [2]; bolus injection of 30 pmol into the lateral ventricle, during 100 minutes, Fig. 3): 70%
positive responses (decrease in CSF production) (rabbits [2]; intraventricular bolus or infusion): 13 of 14
effect on adenylate cyclase activity (adenylate cyclase): small inhibition
stimulation of guanylate cyclase (guanylate cyclase): moderate amount of stimulation
